Measurements: ChEMBL document CHEMBL5241127, “Design, synthesis and biological evaluation of novel 9-N-substituted-13-alkylberberine derivatives from Chinese medicine as anti-hepatocellular carcinoma agents” (Bioorg Med Chem, 2023)
pIC50: −log10 of the molar value. Active and inactive are the calls of the source. The calls are words filed in the database; no cut-off is given here.

How the values were obtained:
HepG2 [1] = assay: Antiproliferative activity against human HepG2 cells assessed as inhibition of cell growth incubated for 72 hrs by MTT assay; assay type: functional, cell-based; settings: HepG2, 72 h
SK-HEP1 = assay: Antiproliferative activity against human SK-HEP1 cells assessed as inhibition of cell growth incubated for 72 hrs by MTT assay; assay type: functional, cell-based; settings: SK-HEP1, 72 h
Huh-7 = assay: Antiproliferative activity against human Huh-7 cells assessed as inhibition of cell growth incubated for 72 hrs by MTT assay; assay type: functional, cell-based; settings: Huh-7, 72 h
Hep 3B2 = assay: Antiproliferative activity against human Hep3B cells assessed as inhibition of cell growth incubated for 72 hrs by MTT assay; assay type: functional, cell-based
HepG2 [2] = assay: Antiproliferative activity against cisplatin-resistant human HepG2 cells assessed as inhibition of cell growth incubated for 72 hrs by MTT assay; assay type: functional, cell-based; settings: HepG2, 72 h
[3] = Antiproliferative activity against human LX2 cells assessed as inhibition of cell growth incubated for 72 hrs by MTT assay; assay type: functional, cell-based; settings: LX-2, 72 h
H22 [4] = assay: Antitumor activity against […] xenografted in ICR mouse assessed as inhibition of tumor growth at 20 mg/kg, iv administered for 21 days and measured every 2 days relative to control; assay type: functional; settings: H22, 504 h, time 21 day, read-out: TGI
Quadruplex DNA [5] = assay: Binding affinity to c-MYC G4-quadruplex DNA (unknown origin) using fluorescent tagged FPu18T model assessed as stabilization by measuring change in melting temperature at 2 uM by fluorescence based analysis; assay type: nucleic-acid assay
DNA = assay: Binding affinity to duplex DNA (unknown origin) using fluorescent tagged F10T model assessed as stabilization by measuring change in melting temperature at 2 uM by fluorescence based analysis; assay type: nucleic-acid assay
Quadruplex DNA [6] = assay: Binding affinity to c-MYC G4-quadruplex DNA (unknown origin) using fluorescent tagged FPu18T model assessed as stabilization by measuring change in melting temperature at 2 uM incubated in presence of non-fluorescent ds26 DNA by fluorescence based analysis; assay type: nucleic-acid assay
HepG2 [7] = assay: Potency index, ratio of cisplatin IC50 to test compound IC50 for antiproliferative activity against human HepG2 cells assessed as inhibition of cell growth incubated for 72 hrs by MTT assay; assay type: functional
HepG2 [8] = assay: Potency index, ratio of cisplatin IC50 to test compound IC50 for antiproliferative activity against cisplatin-resistant human HepG2 cells assessed as inhibition of cell growth incubated for 72 hrs by MTT assay; assay type: functional
Quadruplex DNA [9] = assay: Stabilization of c-MYC G4-quadruplex DNA in human HepG2 cells assessed as BG4 foci formation at 0.3 uM incubated for 72 hrs by confocal laser scanning microscope based analysis; assay type: cell-based
Quadruplex DNA [10] = assay: Stabilization of c-MYC G4-quadruplex DNA in human HepG2 cells assessed as colocalization with BG4 in G4-forming region at 0.3 uM incubated for 72 hrs by confocal laser scanning microscope based analysis; assay type: cell-based
Quadruplex DNA [11] = assay: Stabilization of c-MYC G4-quadruplex DNA in human HepG2 cells assessed as downregulation of c-myc expression incubated for 72 hrs by Western blot analysis; assay type: cell-based; settings: dose 0.15-0.6 µM
HepG2 [12] = assay: Induction of cell cycle arrest in human HepG2 cells assessed as accumulation of cells at G2 phase at 0.15 to 0.6 uM incubated for 72 hrs by RNaseA/PI staining based flow cytometry analysis (reference value: 12.99%); assay type: functional; settings: dose 0.15-0.6 µM
HepG2 [13] = assay: Induction of cell cycle arrest in human HepG2 cells assessed as accumulation of cells at S phase at 0.15 to 0.6 uM incubated for 72 hrs by RNaseA/PI staining based flow cytometry analysis (reference value: 35.98%); assay type: functional; settings: dose 0.15-0.6 µM
HepG2 [14] = assay: Induction of G2/M phase cell cycle arrest in human HepG2 cells assessed as upregulation of p-cdc25c protein expression incubated for 72 hrs by Western blot analysis; assay type: functional, cell-based; settings: dose 0.15-0.6 µM
HepG2 [15] = assay: Induction of G2/M phase cell cycle arrest in human HepG2 cells assessed as downregulation of cdc2 protein expression incubated for 72 hrs by Western blot analysis; assay type: functional, cell-based; settings: dose 0.15-0.6 µM
HepG2 [16] = assay: Induction of G2/M phase cell cycle arrest in human HepG2 cells assessed as downregulation of cyclinB1 protein expression incubated for 72 hrs by Western blot analysis; assay type: functional, cell-based; settings: dose 0.15-0.6 µM
HepG2 [17] = assay: Induction of apoptosis in human HepG2 cells assessed as increase in total apoptotic cells at 0.15 to 0.6 uM incubated for 72 hrs by AnnexinV-FITC/propidium iodide staining based flow cytometry (reference value: 4.1%); assay type: functional; settings: dose 0.15-0.6 µM
HepG2 [18] = assay: Induction of apoptosis in human HepG2 cells assessed as increase in Bax protein expression incubated for 72 hrs by Western blot analysis; assay type: functional, cell-based; settings: dose 0.15-0.6 µM
HepG2 [19] = assay: Induction of apoptosis in human HepG2 cells assessed as increase in cytochrome C protein expression incubated for 72 hrs by Western blot analysis; assay type: functional, cell-based; settings: dose 0.15-0.6 µM
HepG2 [20] = assay: Induction of apoptosis in human HepG2 cells assessed as increase in cleaved caspase 3 expression incubated for 72 hrs by Western blot analysis; assay type: functional, cell-based; settings: dose 0.15-0.6 µM
HepG2 [21] = assay: Induction of apoptosis in human HepG2 cells assessed as reduction in Bcl-2 protein expression at […] incubated for 72 hrs by Western blot analysis; assay type: functional, cell-based; settings: dose lower 0.15 µM
HepG2 [22] = assay: Induction of ROS production in human HepG2 cells assessed as increase in ROS positive cells at 0 to 0.60 uM incubated for 72 hrs by DCF-DA staining based flow cytometry analysis (reference value: 4.21%); assay type: functional; settings: dose 0-0.6 µM
HepG2 [23] = assay: Induction of ROS production in human HepG2 cells assessed as increase in ROS positive cells at 0.06 uM preincubated with ROS scavenger, NAC followed by compound addition and further incubated for 72 hrs by DCF-DA staining based flow cytometry analysis (reference value: 4.21%); assay type: functional
HepG2 [24] = assay: Induction of mitochondrial dysfunction in human HepG2 cells assessed as increase in cells with collapsed mitochondrial membrane potential at 0.15 to 0.6 uM incubated for 72 hrs by JC-1 staining based flow cytometry analysis (reference value: 4.84%); assay type: functional; settings: dose 0.15-0.6 µM
HepG2 [25] = assay: Downregulation of p-PI3K protein expression in human HepG2 cells incubated for 72 hrs by Western blot analysis; assay type: functional, cell-based; settings: dose 0-0.6 µM
HepG2 [26] = assay: Downregulation of p-AKT protein expression in human HepG2 cells incubated for 72 hrs by Western blot analysis; assay type: functional, cell-based; settings: dose 0-0.6 µM
HepG2 [27] = assay: Effect on PI3K total protein level in human HepG2 cells at 0 to 0.6 uM incubated for 72 hrs by Western blot analysis; assay type: functional, cell-based; settings: dose 0-0.6 µM
HepG2 [28] = assay: Effect on AKT total protein level in human HepG2 cells at 0 to 0.6 uM incubated for 72 hrs by Western blot analysis; assay type: functional, cell-based; settings: dose 0-0.6 µM
[29] = Half life in Sprague-Dawley rat at 1 mg/kg, iv measured for 24 hrs by LC-MS/MS analysis; assay type: ADME, organism-based; settings: in vivo
[30] = Initial plasma concentration in Sprague-Dawley rat at 1 mg/kg, iv by LC-MS/MS analysis; assay type: ADME, organism-based
[31] = Drug concentration in Sprague-Dawley rat plasma at 1 mg/kg, iv measured after 5 mins by LC-MS/MS analysis; assay type: ADME, organism-based
[32] = MRT (0 to t) in Sprague-Dawley rat at 1 mg/kg, iv measured for 24 hrs by LC-MS/MS analysis; assay type: ADME, organism-based; settings: in vivo
[33] = AUC (0 to t) in Sprague-Dawley rat at 1 mg/kg, iv measured for 24 hrs by LC-MS/MS analysis; assay type: ADME, organism-based; parameters: dose 1 mg/kg, time 24 hrs, route iv; settings: in vivo
[34] = Clearance in Sprague-Dawley rat at 1 mg/kg, iv measured for 24 hrs by LC-MS/MS analysis; assay type: ADME, organism-based; settings: in vivo
H22 [35] = assay: Antitumor activity against […] xenografted in ICR mouse assessed as reduction in tumor volume administered intravenously for 21 days and measured every 2 days; assay type: functional, cell-based; settings: dose 10-20 mg/kg, route iv, time 21.0 day
H22 [36] = assay: Antitumor activity against […] xenografted in ICR mouse assessed as reduction in tumor weight administered intravenously for 21 days; assay type: functional, cell-based; settings: dose 10-20 mg/kg, route iv, time 21.0 day
H22 [37] = assay: Antitumor activity against […] xenografted in ICR mouse assessed as inhibition of tumor growth at 10 mg/kg, iv administered for 21 days and measured every 2 days relative to control; assay type: functional; settings: H22, 504 h, time 21 day, read-out: TGI
[38] = Toxicity in ICR mouse xenografted with […] H22 cells assessed as reduction in body weight at 10 to 20 mg/kg, iv administered for 21 days and measured every 2 days; assay type: organism-based; settings: in vivo, 504 h, dose 10-20 mg/kg, time 21 day
[39] = Toxicity in ICR mouse xenografted with […] H22 cells assessed as abnormalities in heart at 20 mg/kg, iv administered for 21 days; assay type: organism-based; settings: in vivo, 504 h, time 21 day
[40] = Toxicity in ICR mouse xenografted with […] H22 cells assessed as abnormalities in liver at 20 mg/kg, iv administered for 21 days; assay type: organism-based; settings: in vivo, 504 h, time 21 day
[41] = Toxicity in ICR mouse xenografted with […] H22 cells assessed as abnormalities in spleen at 20 mg/kg, iv administered for 21 days; assay type: organism-based; settings: in vivo, 504 h, time 21 day
[42] = Toxicity in ICR mouse xenografted with […] H22 cells assessed as abnormalities in lung at 20 mg/kg, iv administered for 21 days; assay type: organism-based; settings: in vivo, 504 h, time 21 day
[43] = Toxicity in ICR mouse xenografted with […] H22 cells assessed as abnormalities in kidney at 20 mg/kg, iv administered for 21 days; assay type: organism-based; settings: in vivo, 504 h, time 21 day

## CCCCCCCCc1c2[n+](c3c4c(c(OC)ccc14)N(CCO)C=C3)CCc1cc3c(cc1-2)OCO3
HepG2 [1]
  pIC50: 5.64

## CCCCCCCCc1c2[n+](cc3c(NCCCCN)c(OC)ccc13)CCc1cc3c(cc1-2)OCO3
HepG2 [1]
  pIC50: 5.29

## CCCCCCCCCCCCc1c2[n+](cc3c(NCCO)c(OC)ccc13)CCc1cc3c(cc1-2)OCO3
HepG2 [1]
  pIC50: 5.64

## CCCCCCCCCCc1c2[n+](cc3c(NCCO)c(OC)ccc13)CCc1cc3c(cc1-2)OCO3
HepG2 [1]
  pIC50: 5.69

## COc1ccc2cc3[n+](cc2c1OC)CCc1cc2c(cc1-3)OCO2 [BERBERINE]
HepG2 [1]
  pIC50: < 4.30
SK-HEP1
  pIC50: < 4.30
Huh-7
  pIC50: < 4.30
Hep 3B2
  pIC50: < 4.30
HepG2 [2]
  pIC50: < 4.30
[3]
  pIC50: < 4.30
H22 [4]
  inhibition in vivo at 20 mg/kg: 42.3%
Quadruplex DNA [5]
  ΔTm: 1.6 °C
DNA
  ΔTm: 2.1 °C

## CCCCCCCCc1c2[n+](c3c4c(c(OC)ccc14)N(CCN(C)C)C=C3)CCc1cc3c(cc1-2)OCO3
HepG2 [1]
  pIC50: 6.00
Quadruplex DNA [5]
  ΔTm: 21.8 °C
DNA
  ΔTm: 0.4 °C
Quadruplex DNA [6]
  ΔTm: 21.1 °C

## CCCCCCCCc1c2[n+](cc3c(NCCN(C)C)c(OC)ccc13)CCc1cc3c(cc1-2)OCO3.[Cl-]
HepG2 [1]
  pIC50: 6.19
SK-HEP1
  pIC50: 5.97
Huh-7
  pIC50: 6.24
Hep 3B2
  pIC50: 5.94
HepG2 [2]
  pIC50: 5.67
[3]
  pIC50: 5.06
HepG2 [7]
  Ratio IC50: >10
HepG2 [8]
  Ratio IC50: >40
Quadruplex DNA [9]
  Activity: Active
Quadruplex DNA [10]
  Activity: Active
Quadruplex DNA [11]
  Activity: Dose-Dependent Effect
HepG2 [12]
  Activity: 27.61%
HepG2 [13]
  Activity: 21.63%
HepG2 [14]
  Activity: Dose-Dependent Effect
HepG2 [15]
  Activity: Dose-Dependent Effect
HepG2 [16]
  Activity: Dose-Dependent Effect
HepG2 [17]
  Activity: 51.25%
HepG2 [18]
  Activity: Dose-Dependent Effect
HepG2 [19]
  Activity: Dose-Dependent Effect
HepG2 [20]
  Activity: Dose-Dependent Effect
HepG2 [21]
  Activity: Active
HepG2 [22]
  Activity: 52.48%
HepG2 [23]
  Activity: 3.67%
HepG2 [24]
  Activity: 40.73%
HepG2 [25]
  Activity: Dose-Dependent Effect
HepG2 [26]
  Activity: Dose-Dependent Effect
HepG2 [27]
  Activity: inactive
HepG2 [28]
  Activity: inactive
[29]
  half-life: 2.62 h
[30]
  C0: 872 ng/mL
[31]
  concentration at 5 min: 758 ng/mL
[32]
  MRT last at 24 h: 1.81 h
[33]
  AUC(0-t) at 24 h: 674 ng·h/mL
[34]
  clearance: 21.7 mL/min/kg
H22 [35]
  Activity: Dose-Dependent Effect
H22 [36]
  Activity: Dose-Dependent Effect
H22 [37]
  inhibition in vivo at 10 mg/kg: 51.8%
H22 [4]
  inhibition in vivo at 20 mg/kg: 62.9%
[38]
  Activity: Non-Toxic
[39]
  Activity: Non-Toxic
[40]
  Activity: Non-Toxic
[41]
  Activity: Non-Toxic
[42]
  Activity: Non-Toxic
[43]
  Activity: Non-Toxic
Quadruplex DNA [5]
  ΔTm: 21.4 °C
DNA
  ΔTm: 0.2 °C
Quadruplex DNA [6]
  ΔTm: 20.9 °C

## CCCCCCCCc1c2[n+](cc3c(NCCO)c(OC)ccc13)CCc1cc3c(cc1-2)OCO3
HepG2 [1]
  pIC50: 5.56
